# According to patent publication US10898475B2, “Bach1 inhibitors in combination with Nrf2 activators and pharmaceutical compositions thereof” (vTv Therapeutics LLC, priority 2014, dated 2021):
# System: HMOX1 in Normal Human Lung Fibroblasts (NHLF)
# Assay: HMOX1 Protein Expression (immunostaining, fold induction or % positive cells over DMSO)
# Conditions: for Hill slope of DMF dose response curves in Table 2: % Positive HMOX
# Experimental: Normal Human Lung Fibroblasts (NHLF) obtained from Lonza were cultured in T-225 flasks using conditions recommended by the vendor (FGM-2 medium supplemented with 2% fetal bovine serum (FBS), fibroblast growth factor (hFGF-B) 0.5 mL, insulin 0.5 mL, and gentamicin/amphotericin-B 0.5 mL at 37° C. in a humidified atmosphere of 5% CO2).
# For assays, cell were thawed and placed into culture in T225 flasks, grown to be 80% confluent, and harvested as described by the vendor. NHLF cells (2.5×10^4 cells per well) were plated in 384 well optilux tissue culture (BD) plates and incubated overnight in media prior to exposure to compound. Cells were incubated with DMSO or various combinations of either an Nrf2 Activator (DMF (dimethyl fumarate)/CDDO-Me) or a Bach1 Inhibitor for 16-18 hr. Cells were then fixed and permeabilized prior to incubation with HMOX1 antibody (abcam; 1:300 dilution in 1% BSA in PBS) for 1 hour. Cells were then washed and incubated with a solution of fluorescently-coupled goat anti-mouse antibody (Alexa 488 1:400 dilution Invitrogen) and Hoechst nuclear stain (1:2000; Invitrogen) in PBS containing 1% BSA for 1 hr. Immunostaining was detected using a GE InCell 2000 instrument at the following wavelengths: Hoechst Ex/Em 360/535 and Alexa 488 Ex/Em 480/535. Results were analyzed using GE InCell Analyzer software and represented as the increase fold of HMOX1 induction (Fold induction/FI) or the percentage of HMOX1 positive (% positive) cells over DMSO.
compound,measurement,setting,value
"COCCNC(=O)c1cnc2c(c1)nc(Nc1nc3ccc(OC(F)(F)F)cc3s1)n2C [HPP-B, 3-Methyl-2-(6-trifluoromethoxy-benzothiazol-2-ylamino)-3H-imidazo[4,5-b]pyridine-6-carboxylic acid (2-methoxy-ethyl)-amide]",Hill slope of DMF dose response curves in Table 2,Bach1 Inhibitor Conc. 0.019 uM,2.14
same,Hill slope of DMF dose response curves in Table 2,Bach1 Inhibitor Conc. 0.039 uM,1.87
same,Hill slope of DMF dose response curves in Table 2,Bach1 Inhibitor Conc. 0.078 uM,1.25
same,Hill slope of DMF dose response curves in Table 2,Bach1 Inhibitor Conc. 0.156 uM,1.12
same,% Cells Positive HMOX,"Cpd. 0.019 uM, DMF 0 uM",2.31%
same,Fold Induction of HMOX,"Cpd. 0.019 uM, DMF 0 uM",1.24 fold
same,% Cells Positive HMOX,"Cpd. 0.019 uM, DMF 0.03 uM",1.80%
same,Fold Induction of HMOX,"Cpd. 0.019 uM, DMF 0.03 uM",1.17 fold
same,% Cells Positive HMOX,"Cpd. 0.019 uM, DMF 0.1 uM",2.55%
same,Fold Induction of HMOX,"Cpd. 0.019 uM, DMF 0.1 uM",1.13 fold
same,% Cells Positive HMOX,"Cpd. 0.019 uM, DMF 0.3 uM",8.27%
same,Fold Induction of HMOX,"Cpd. 0.019 uM, DMF 0.3 uM",1.43 fold
same,% Cells Positive HMOX,"Cpd. 0.019 uM, DMF 1 uM",7.52%
same,Fold Induction of HMOX,"Cpd. 0.019 uM, DMF 1 uM",1.57 fold
same,% Cells Positive HMOX,"Cpd. 0.019 uM, DMF 3 uM",54.65%
same,Fold Induction of HMOX,"Cpd. 0.019 uM, DMF 3 uM",2.98 fold
same,% Cells Positive HMOX,"Cpd. 0.019 uM, DMF 10 uM",92.63%
same,Fold Induction of HMOX,"Cpd. 0.019 uM, DMF 10 uM",4.94 fold
same,% Cells Positive HMOX,"Cpd. 0.019 uM, DMF 30 uM",84.93%
same,Fold Induction of HMOX,"Cpd. 0.019 uM, DMF 30 uM",4.23 fold
same,% Cells Positive HMOX,"Cpd. 0.039 uM, DMF 0 uM",5.30%
same,Fold Induction of HMOX,"Cpd. 0.039 uM, DMF 0 uM",1.45 fold
same,% Cells Positive HMOX,"Cpd. 0.039 uM, DMF 0.03 uM",1.53%
same,Fold Induction of HMOX,"Cpd. 0.039 uM, DMF 0.03 uM",1.07 fold
same,% Cells Positive HMOX,"Cpd. 0.039 uM, DMF 0.1 uM",2.54%
same,Fold Induction of HMOX,"Cpd. 0.039 uM, DMF 0.1 uM",1.08 fold
same,% Cells Positive HMOX,"Cpd. 0.039 uM, DMF 0.3 uM",13.04%
same,Fold Induction of HMOX,"Cpd. 0.039 uM, DMF 0.3 uM",1.59 fold
same,% Cells Positive HMOX,"Cpd. 0.039 uM, DMF 1 uM",23.13%
same,Fold Induction of HMOX,"Cpd. 0.039 uM, DMF 1 uM",1.97 fold
same,% Cells Positive HMOX,"Cpd. 0.039 uM, DMF 3 uM",75.79%
same,Fold Induction of HMOX,"Cpd. 0.039 uM, DMF 3 uM",2.84 fold
same,% Cells Positive HMOX,"Cpd. 0.039 uM, DMF 10 uM",91.99%
same,Fold Induction of HMOX,"Cpd. 0.039 uM, DMF 10 uM",4.86 fold
same,% Cells Positive HMOX,"Cpd. 0.039 uM, DMF 30 uM",87.54%
same,Fold Induction of HMOX,"Cpd. 0.039 uM, DMF 30 uM",4.82 fold
same,% Cells Positive HMOX,"Cpd. 0.078 uM, DMF 0 uM",8.23%
same,Fold Induction of HMOX,"Cpd. 0.078 uM, DMF 0 uM",1.46 fold
same,% Cells Positive HMOX,"Cpd. 0.078 uM, DMF 0.03 uM",1.72%
same,Fold Induction of HMOX,"Cpd. 0.078 uM, DMF 0.03 uM",1.12 fold
same,% Cells Positive HMOX,"Cpd. 0.078 uM, DMF 0.1 uM",7.05%
same,Fold Induction of HMOX,"Cpd. 0.078 uM, DMF 0.1 uM",1.21 fold
same,% Cells Positive HMOX,"Cpd. 0.078 uM, DMF 0.3 uM",10.31%
same,Fold Induction of HMOX,"Cpd. 0.078 uM, DMF 0.3 uM",1.43 fold
same,% Cells Positive HMOX,"Cpd. 0.078 uM, DMF 1 uM",29.42%
same,Fold Induction of HMOX,"Cpd. 0.078 uM, DMF 1 uM",2.29 fold
same,% Cells Positive HMOX,"Cpd. 0.078 uM, DMF 3 uM",55.22%
same,Fold Induction of HMOX,"Cpd. 0.078 uM, DMF 3 uM",3.12 fold
same,% Cells Positive HMOX,"Cpd. 0.078 uM, DMF 10 uM",94.55%
same,Fold Induction of HMOX,"Cpd. 0.078 uM, DMF 10 uM",5.06 fold
same,% Cells Positive HMOX,"Cpd. 0.078 uM, DMF 30 uM",86.84%
same,Fold Induction of HMOX,"Cpd. 0.078 uM, DMF 30 uM",4.52 fold
same,% Cells Positive HMOX,"Cpd. 0.156 uM, DMF 0 uM",11.32%
same,Fold Induction of HMOX,"Cpd. 0.156 uM, DMF 0 uM",1.96 fold
same,% Cells Positive HMOX,"Cpd. 0.156 uM, DMF 0.03 uM",8.51%
same,Fold Induction of HMOX,"Cpd. 0.156 uM, DMF 0.03 uM",1.46 fold
same,% Cells Positive HMOX,"Cpd. 0.156 uM, DMF 0.1 uM",18.49%
same,Fold Induction of HMOX,"Cpd. 0.156 uM, DMF 0.1 uM",1.73 fold
same,% Cells Positive HMOX,"Cpd. 0.156 uM, DMF 0.3 uM",30.11%
same,Fold Induction of HMOX,"Cpd. 0.156 uM, DMF 0.3 uM",2.06 fold
same,% Cells Positive HMOX,"Cpd. 0.156 uM, DMF 1 uM",57.70%
same,Fold Induction of HMOX,"Cpd. 0.156 uM, DMF 1 uM",2.87 fold
same,% Cells Positive HMOX,"Cpd. 0.156 uM, DMF 3 uM",79.63%
same,Fold Induction of HMOX,"Cpd. 0.156 uM, DMF 3 uM",3.63 fold
same,% Cells Positive HMOX,"Cpd. 0.156 uM, DMF 10 uM",99.72%
same,Fold Induction of HMOX,"Cpd. 0.156 uM, DMF 10 uM",5.58 fold
same,% Cells Positive HMOX,"Cpd. 0.156 uM, DMF 30 uM",98.17%
same,Fold Induction of HMOX,"Cpd. 0.156 uM, DMF 30 uM",4.99 fold
same,combination effect in terms of the % HMOX positive cells,combination with DMF at concentrations below their maximum effect (Table 2),additive or greater than additive
same,change of Hill slope of the DMF dose response curve (FIG. 5),upon increasing amounts of the Bach1 Inhibitor,reduced
